Source: US20230233569A1 (Revolution Medicines, Inc., priority 2020, published 2023)
pIC50: −log10 of the molar value. Read-outs that look alike come from different tables or passages of the source.

Columns and labels:
Experiment in all cases: Ras-Raf disruption / FRET / MOA assay (BRAF RBD)
Assay type in all cases: biochemical
KRAS G12D = KRAS G12D (Homo sapiens, UniProt P01116+P62937, G12D); settings: with Cyclophilin A
How it was run: (§1)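 TR-FRET in 25 mM HEPES pH 7.3, 100 mM NaCl, 5 mM MgCl2, 0.1% BSA, 0.002% Tween20 with 25 μM Cyclophilin A, 12.5 nM His6-Ras-GMPPNP, 50 nM GST-BRAF RBD; compound 10-point 3-fold series from 30 μM. After 3 h at 25 °C, Eu anti-His/APC anti-GST added for 1.5 h; IC50 from ratio decrease versus DMSO.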

KRAS G12S = KRAS G12S (Homo sapiens, UniProt P01116+P62937, G12S); settings: with Cyclophilin A
KRAS G12S, sequence (P01116 1-169 isoform P01116-2 G12S limits assumed): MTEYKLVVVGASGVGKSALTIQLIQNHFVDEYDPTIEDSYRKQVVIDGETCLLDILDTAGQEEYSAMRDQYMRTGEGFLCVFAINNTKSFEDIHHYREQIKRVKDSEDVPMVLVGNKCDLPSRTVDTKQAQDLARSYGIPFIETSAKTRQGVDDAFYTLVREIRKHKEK
KRAS G12S, sequence (P62937 whole entry): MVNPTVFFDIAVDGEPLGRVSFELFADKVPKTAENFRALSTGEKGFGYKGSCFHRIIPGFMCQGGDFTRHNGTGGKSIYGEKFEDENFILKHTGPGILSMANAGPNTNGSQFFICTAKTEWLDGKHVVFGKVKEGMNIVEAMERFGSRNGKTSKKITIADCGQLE
How it was run: as §1

KRAS G12V = KRAS G12V (Homo sapiens, UniProt P01116+P62937, G12V); settings: with Cyclophilin A
KRAS G12V, sequence (P01116 1-169 isoform P01116-2 G12V limits assumed): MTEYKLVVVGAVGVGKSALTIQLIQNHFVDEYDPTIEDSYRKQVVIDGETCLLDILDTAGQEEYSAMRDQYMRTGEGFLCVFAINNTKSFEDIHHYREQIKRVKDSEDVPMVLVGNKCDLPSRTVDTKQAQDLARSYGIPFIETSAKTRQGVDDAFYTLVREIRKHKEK
KRAS G12V, sequence (P62937 whole entry): as the sequence (P62937 whole entry) above
How it was run: as §1

KRAS G13C = KRAS G13C (Homo sapiens, UniProt P01116+P62937, G13C); settings: with Cyclophilin A
KRAS G13C, sequence (P01116 1-169 isoform P01116-2 G13C limits assumed): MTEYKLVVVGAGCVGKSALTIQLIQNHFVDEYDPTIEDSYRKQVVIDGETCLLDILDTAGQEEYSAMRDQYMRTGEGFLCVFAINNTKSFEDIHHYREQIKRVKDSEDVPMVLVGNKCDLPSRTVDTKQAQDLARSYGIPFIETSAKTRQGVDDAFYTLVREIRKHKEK
KRAS G13C, sequence (P62937 whole entry): as the sequence (P62937 whole entry) above
How it was run: as §1

KRAS G13D = KRAS G13D (Homo sapiens, UniProt P01116+P62937, G13D); settings: with Cyclophilin A
KRAS G13D, sequence (P01116 1-169 isoform P01116-2 G13D limits assumed): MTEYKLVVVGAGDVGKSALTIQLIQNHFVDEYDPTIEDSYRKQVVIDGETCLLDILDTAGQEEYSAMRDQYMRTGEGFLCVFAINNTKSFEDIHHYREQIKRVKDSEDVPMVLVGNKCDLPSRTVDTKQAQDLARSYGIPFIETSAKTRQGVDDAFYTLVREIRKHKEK
KRAS G13D, sequence (P62937 whole entry): as the sequence (P62937 whole entry) above
How it was run: as §1

KRAS Q61H = KRAS Q61H (Homo sapiens, UniProt P01116+P62937, Q61H)
KRAS Q61H, sequence (P01116 1-169 isoform P01116-2 Q61H limits assumed): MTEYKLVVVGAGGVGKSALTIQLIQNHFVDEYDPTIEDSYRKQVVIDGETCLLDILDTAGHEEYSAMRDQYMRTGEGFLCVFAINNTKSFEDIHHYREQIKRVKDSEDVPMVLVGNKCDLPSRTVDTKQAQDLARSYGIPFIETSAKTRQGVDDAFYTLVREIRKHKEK
KRAS Q61H, sequence (P62937 whole entry): as the sequence (P62937 whole entry) above
How it was run: as §1

KRAS WT = KRAS WT (Homo sapiens, UniProt P01116+P62937); settings: with Cyclophilin A
KRAS WT, sequence (P01116 1-169 isoform P01116-2 limits assumed): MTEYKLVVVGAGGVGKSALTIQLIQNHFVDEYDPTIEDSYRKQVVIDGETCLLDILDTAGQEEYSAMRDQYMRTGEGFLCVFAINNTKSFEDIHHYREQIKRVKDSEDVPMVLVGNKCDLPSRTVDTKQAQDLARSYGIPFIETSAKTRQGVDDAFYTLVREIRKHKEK
KRAS WT, sequence (P62937 whole entry): as the sequence (P62937 whole entry) above
How it was run: as §1

NRAS G12C = NRAS G12C (Homo sapiens, UniProt P01111+P62937, G12C)
NRAS G12C, sequence (P01111 whole entry G12C): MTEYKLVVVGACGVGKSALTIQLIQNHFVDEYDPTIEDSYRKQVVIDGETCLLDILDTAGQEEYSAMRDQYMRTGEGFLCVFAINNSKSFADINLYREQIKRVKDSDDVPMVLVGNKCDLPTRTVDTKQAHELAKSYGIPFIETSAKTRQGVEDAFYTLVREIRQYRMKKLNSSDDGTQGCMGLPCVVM
NRAS G12C, sequence (P62937 whole entry): as the sequence (P62937 whole entry) above
How it was run: as §1

NRAS Q61K = NRAS Q61K (Homo sapiens, UniProt P01111+P62937, Q61K)
NRAS Q61K, sequence (P01111 whole entry Q61K): as the sequence (P01111 whole entry G12C) above, with C12G, Q61K counted along it
NRAS Q61K, sequence (P62937 whole entry): as the sequence (P62937 whole entry) above
How it was run: as §1

NRAS Q61R = NRAS Q61R (Homo sapiens, UniProt P01111+P62937, Q61R)
NRAS Q61R, sequence (P01111 whole entry Q61R): as the sequence (P01111 whole entry G12C) above, with C12G, Q61R counted along it
NRAS Q61R, sequence (P62937 whole entry): as the sequence (P62937 whole entry) above
How it was run: as §1

NRAS WT = NRAS WT (Homo sapiens, UniProt P01111+P62937)
NRAS WT, sequence (P01111 whole entry): as the sequence (P01111 whole entry G12C) above, with C12G counted along it
NRAS WT, sequence (P62937 whole entry): as the sequence (P62937 whole entry) above
How it was run: as §1

KRAS G12C = KRAS G12C (Homo sapiens, UniProt P01116+P62937, G12C); settings: with Cyclophilin A
KRAS G12C, sequence (P01116 1-169 isoform P01116-2 G12C limits assumed): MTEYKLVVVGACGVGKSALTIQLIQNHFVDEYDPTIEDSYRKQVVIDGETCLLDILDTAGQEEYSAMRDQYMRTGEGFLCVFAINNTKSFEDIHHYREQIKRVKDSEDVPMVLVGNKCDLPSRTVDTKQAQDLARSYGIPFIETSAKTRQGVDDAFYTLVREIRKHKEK
KRAS G12C, sequence (P62937 whole entry): as the sequence (P62937 whole entry) above
How it was run: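 His6-K-Ras G12C-GMPPNP (12.5 nM), GST-BRAF RBD (50 nM) and tagless Cyclophilin A (25 μM) incubated 3 h at 25 °C with compound (10-point 3-fold series from 30 μM), pH 7.3 HEPES buffer. Anti-His Eu/anti-GST APC added for 1.5 h; decreased TR-FRET ratio vs DMSO gives IC50.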

[1] = Ras-Raf disruption, read-out: KRAS G12D FRET data IC50
[2] = Ras-Raf disruption, read-out: KRAS G12S FRET data IC50
[3] = Ras-Raf disruption, read-out: KRAS G12V FRET data IC50
[4] = Ras-Raf disruption, read-out: KRAS G13C FRET data IC50
[5] = Ras-Raf disruption, read-out: KRAS G13D FRET data IC50
[6] = KRAS Q61H, read-out: KRAS Q61H FRET data IC50
[7] = Ras-Raf disruption, read-out: KRAS WT FRET data IC50
[8] = NRAS G12C, read-out: NRAS G12C FRET data IC50
[9] = NRAS Q61K, read-out: NRAS Q61K FRET data IC50
[10] = NRAS Q61R, read-out: NRAS Q61R FRET data IC50
[11] = NRAS WT, read-out: NRAS WT FRET data IC50
[12] = Ras-Raf disruption, read-out: KRAS G12C FRET data IC50
[13] = KRAS G12D FRET data IC50, Ras-Raf disruption
[14] = KRAS G12S FRET data IC50, Ras-Raf disruption
[15] = KRAS G12V FRET data IC50, Ras-Raf disruption
[16] = KRAS G13C FRET data IC50, Ras-Raf disruption
[17] = KRAS G13D FRET data IC50, Ras-Raf disruption
[18] = KRAS WT FRET data IC50, Ras-Raf disruption
[19] = NRAS G12C FRET data IC50, NRAS G12C
[20] = KRAS G12C FRET data IC50, Ras-Raf disruption

KRAS G12D, sequence (P01116 1-169 isoform P01116-2 G12D limits assumed): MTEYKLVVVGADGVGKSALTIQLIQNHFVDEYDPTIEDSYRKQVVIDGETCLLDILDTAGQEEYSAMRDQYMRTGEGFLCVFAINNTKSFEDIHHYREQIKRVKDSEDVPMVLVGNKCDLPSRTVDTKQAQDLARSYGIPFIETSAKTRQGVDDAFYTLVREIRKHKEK
KRAS G12D, sequence (P62937 whole entry): as the sequence (P62937 whole entry) above

SMILES	pIC50 (KRAS G12D; [1])	pIC50 (KRAS G12S; [2])	pIC50 (KRAS G12V; [3])	pIC50 (KRAS G13C; [4])	pIC50 (KRAS G13D; [5])	pIC50 (KRAS Q61H; [6])	pIC50 (KRAS WT; [7])	pIC50 (NRAS G12C; [8])	pIC50 (NRAS Q61K; [9])	pIC50 (NRAS Q61R; [10])	pIC50 (NRAS WT; [11])	pIC50 (KRAS G12C; [12])	pIC50 (KRAS G12D; [13])	pIC50 (KRAS G12S; [14])	pIC50 (KRAS G12V; [15])	pIC50 (KRAS G13C; [16])	pIC50 (KRAS G13D; [17])	pIC50 (KRAS Q61H)	pIC50 (KRAS WT; [18])	pIC50 (NRAS G12C; [19])	also measured
CCn1c(-c2cccnc2[C@H](C)OC)c2c3cc(ccc31)-c1cc(O)cc(c1)C[C@H](NC(=O)[C@H](C(C)C)N(C)C(=O)CN(C)S(=O)(=O)[C@@H]1CN1C)C(=O)N1CCC[C@H](N1)C(=O)OCC(C)(C)C2 (single isomer, unassigned) [Example 92]	6.00 to 7.00	7.00 to 8.00	6.00 to 7.00	7.00 to 8.00	6.00 to 7.00	7.00 to 8.00	7.00 to 8.00	7.00 to 8.00	6.00 to 7.00	6.00 to 7.00	7.00 to 8.00	7.00 to 8.00									
CCn1c(-c2cccnc2[C@H](C)OC)c2c3cc(ccc31)-c1cc(O)cc(c1)C[C@H](NC(=O)[C@H](C(C)C)N(C)C(=O)C1CCN(S(=O)(=O)[C@H]3CN3C)CC1)C(=O)N1CCC[C@H](N1)C(=O)OCC(C)(C)C2 (single isomer, unassigned) [Example 108]	5.00 to 6.00	6.00 to 7.00	6.00 to 7.00	7.00 to 8.00	6.00 to 7.00	7.00 to 8.00	6.00 to 7.00	6.00 to 7.00	6.00 to 7.00	6.00 to 7.00	6.00 to 7.00	6.00 to 7.00									
CCn1c(-c2cccnc2[C@H](C)OC)c2c3cc(ccc31)-c1cc(O)cc(c1)C[C@H](NC(=O)[C@H](C(C)C)N(C)C(=O)C1CN(S(=O)(=O)[C@H]3CN3C)C1)C(=O)N1CCC[C@H](N1)C(=O)OCC(C)(C)C2 (single isomer, unassigned) [Example 117]	5.00 to 6.00	6.00 to 7.00	6.00 to 7.00	7.00 to 8.00	6.00 to 7.00	7.00 to 8.00	6.00 to 7.00	6.00 to 7.00	6.00 to 7.00	6.00 to 7.00	7.00 to 8.00	7.00 to 8.00									
CCn1c(-c2cccnc2[C@H](C)OC)c2c3cc(ccc31)-c1cc(O)cc(c1)C[C@H](NC(=O)[C@H](C(C)C)N(C)C(=O)C1CCN(S(=O)(=O)[C@@H]3CN3C)CC1)C(=O)N1CCC[C@H](N1)C(=O)OCC(C)(C)C2 (single isomer, unassigned) [Example 119]	5.00 to 6.00	6.00 to 7.00	6.00 to 7.00	7.00 to 8.00	6.00 to 7.00	7.00 to 8.00	6.00 to 7.00	6.00 to 7.00	6.00 to 7.00	5.00 to 6.00	6.00 to 7.00	7.00 to 8.00									
CCn1c(-c2cccnc2[C@H](C)OC)c2c3cc(ccc31)-c1cc(O)cc(c1)C[C@H](NC(=O)[C@H](C1CCCC1)N(C)C(=O)CN(C)C(=O)[C@@H]1N[C@@H]1C1(C#N)CC1)C(=O)N1CCC[C@H](N1)C(=O)OCC(C)(C)C2 (single isomer, unassigned) [Example 308]													6.00 to 7.00	7.00 to 8.00	6.00 to 7.00	7.00 to 8.00	6.00 to 7.00	7.00 to 8.00	7.00 to 8.00	7.00 to 8.00	pIC50 (NRAS Q61K): 6.00 to 7.00; pIC50 (NRAS Q61R): 6.00 to 7.00; pIC50 (NRAS WT): 7.00 to 8.00; pIC50 (KRAS G12C; [20]): 7.00 to 8.00
CCn1c(-c2cccnc2[C@H](C)OC)c2c3cc(ccc31)-c1cc(O)cc(c1)C[C@H](NC(=O)[C@H](C1CCCC1)N(C)C(=O)CN(C)C(=O)[C@H]1N[C@H]1C1(OC)CC1)C(=O)N1CCC[C@H](N1)C(=O)OCC(C)(C)C2 (single isomer, unassigned) [Example 322]													6.00 to 7.00	7.00 to 8.00	7.00 to 8.00	7.00 to 8.00	6.00 to 7.00	7.00 to 8.00	7.00 to 8.00	7.00 to 8.00	pIC50 (NRAS Q61K): 6.00 to 7.00; pIC50 (NRAS Q61R): 6.00 to 7.00; pIC50 (NRAS WT): 7.00 to 8.00; pIC50 (KRAS G12C; [20]): 7.00 to 8.00
